Laboratory results from patent publication US9573966B2, “Anti-cancer activity of novel bicyclic heterocycles” (Katholieke Universiteit Leuven, K.U.Leuven R&D, priority 2010, dated 2017).

Tests used:
[1] = test system: LNCaP cells; experiment: Inhibition of LNCaP prostate carcinoma cell line proliferation (WST-1); format: cell-based; conditions: Homo sapiens, 48 h; cytotoxicity on LNCaP cells, two days incubation, WST-1 read-out
Experimental: LNCaP cell line, a prostate carcinoma cell line, was grown in RPMI-1640 medium (Lonza, Belgium) supplemented with 10% fetal calf serum (Hyclone, US) and antibiotics. Exponential growing phase cells were seed in flat bottom 96-well microplates (TTP, Switzerland) at 10000 cells per well in 200 μl of medium. The day after, 20 μl of compounds (in different concentrations) were added and incubated for two days at 37° C., 5% CO2. After incubation, 100 μl of supernatant were removed and 10 μl of WST-1 (Roche, Switzerland) were added. After 2 hour incubation at 37° C., 5% CO2, optical densities were measured at 450 nm. Proliferation is calculated with respect of control points (no compound and treatment with Triton X100 to have maximum and minimum proliferation data). The IC50 was determined from a graph with at least four points, each derived from the mean of at least 2 experiments. […] The results are shown in Table 3 for a number of compounds.

[2] = test system: HL-60 cells; experiment: Inhibition of HL-60 leukemic cell line proliferation (WST-1); format: cell-based, human; conditions: Homo sapiens, 48 h; cytotoxicity on HL-60 cells, two days incubation, WST-1 read-out
Summary of the method: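 HL-60 cells, 50000/well, exposed to compounds for two days at 37 °C, then 2 h WST-1 with OD at 450 nm. Proliferation scaled between untreated and Triton X100 controls; IC50 from at least four points, each a mean of ≥2 experiments.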

[3] = test system: HSB-2 cells; experiment: Inhibition of HSB-2 leukemic cell line proliferation (WST-1); format: cell-based, human; conditions: Homo sapiens, HSB2, 48 h, cytotoxicity on HSB-2 cells, two days incubation, WST-1 read-out
Summary of the method: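 HSB-2 human ALL cells, 50000/well in RPMI-1640 + 10% FCS, exposed to compounds 2 days at 37 °C, then WST-1 2 h, OD 450 nm. Proliferation scaled between untreated (max) and Triton X100 (min) controls; IC50 from ≥4-point curves, each point mean of ≥2 experiments.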

[4] = test system: hu EOL-1 leukemia
Experimental: The test compound (Example 222) was dissolved in DMSO (5% final concentration) and further solubilised in 0.5% Tween 80 in 1% methylcellulose. The resulting suspension was warmed for 10 minutes to 37° C. in an ultrasound water bath to obtain a homogeneous formulation for oral administration. At day 0, 24 male NSG mice received a s.c. inoculum of 10^7 EOL-1 cells taken from in vitro culture and mixed with 50% matrigel. At day 10 tumours were palpable, mice were randomized into three treatment groups and therapy initiated. The test compound (Example 222) and the vehicle were administered orally (p.o.) once daily until the end of the experiment. Cyclophosphamide was administered only once intraperitoneally (i.p.).

SMILES	IC50 [1] [nM]	IC50 [2] [nM]	IC50 [3] [nM]	other results
Nc1nc(N2CCN(C(=O)COc3ccc(Cl)cc3)CC2)c2nc(-c3cccnc3)sc2n1 [Example 121a, 5-amino-7-[4-(4-chlorophenoxyacetyl)piperazin-1-yl]-2-(pyridine-3-yl)thiazolo[5,4-d]pyrimidine]	48000	230	200	
Nc1nc(N2CCN(C(=O)Nc3ccccc3)CC2)c2nc(-c3cccnc3)sc2n1 [Example 440, 4-(5-amino-2-(pyridin-3-yl)thiazolo[5,4-d]pyrimidin-7-yl)-N-phenylpiperazine-1-carboxamide]	17100	64	58	
Cc1ccc(NC(=O)N2CCN(c3nc(N)nc4sc(-c5cccnc5)nc34)CC2)cc1 [Example 222, 4-(5-amino-2-(pyridin-3-yl)thiazolo[5,4-d]pyrimidin-7-yl)-N-p-tolylpiperazine-1-carboxamide]	2870	50	50	behavioural changes or deaths ([4]; EOL-1 xenograft in NSG mice, Example 222 p.o. once daily): did not lead to any behavioural changes or deaths; antileukemic activity ([4]; EOL-1 xenograft model, conclusion): significant antileukemic activity; body weight loss ([4]; mouse, in vivo): 11%; tolerability ([4]; mouse, in vivo): well tolerated; effect on tumour growth (tumour volume) relative to vehicle ([4]; s.c. EOL-1 tumours in NSG mice, therapy from day 10 to day 21, Example 222 p.o. once daily, cyclophosphamide once i.p.): moderate but significant (p<0.05) delay of tumour growth
CC(C)(Oc1ccc(Cl)cc1)C(=O)N1CCN(c2nc(N)nc3sc(-c4cccnc4)nc23)CC1 [Example 274, 1-(4-(5-amino-2-(pyridin-3-yl)thiazolo[5,4-d]pyrimidin-7-yl)piperazin-1-yl)-2-(4-chlorophenoxy)-2-methylpropan-1-one]	18200			
Cc1cccc(NC(=O)N2CCN(c3nc(N)nc4sc(-c5ccccc5)nc34)CC2)c1 [Example 220, 4-(5-amino-2-phenylthiazolo[5,4-d]pyrimidin-7-yl)-N-m-tolylpiperazine-1-carboxamide]	11200	920	770	
Cc1cccc(NC(=O)N2CCN(c3nc(N)nc4sc(-c5cccnc5)nc34)CC2)c1 [Example 276, 4-(5-amino-2-(pyridin-3-yl)thiazolo[5,4-d]pyrimidin-7-yl)-N-m-tolylpiperazine-1-carboxamide]	3050	60	50	
Cc1cccc(OCC(=O)N2CCN(c3nc(N)nc4sc(-c5cccnc5)nc34)CC2)c1 [Example 275, 1-(4-(5-amino-2-(pyridin-3-yl)thiazolo[5,4-d]pyrimidin-7-yl)piperazin-1-yl)-2-(m-tolyloxy)ethanone]	1090	50	70	
COc1ccc(OCC(=O)N2CCN(c3nc(N)nc4sc(-c5cccnc5)nc34)CC2)cc1 [Example 271, 1-(4-(5-amino-2-(pyridin-3-yl)thiazolo[5,4-d]pyrimidin-7-yl)piperazin-1-yl)-2-(4-methoxyphenoxy)ethanone]	> 100000	100	60	
CCOc1nc(N)nc2sc(-c3ccc(F)cc3)cc12 [Example 363, 4-ethoxy-6-(4-fluorophenyl)thieno[2,3-d]pyrimidin-2-amine]				melting point: 142 °C
